These compounds were tested on SARS-CoV-2 strain USA-WA1/2020 (assay: microbe, parasite or virus in culture). Details: Severe acute respiratory syndrome coronavirus 2, HeLa-ACE2, 24 h, HeLa-ACE2 cells, SARS-CoV-2 infection, 24 h; class symbols; read-out: EC50, uM (Hela).
Assay type: cell-based

Q: `CC(C)(O)C(=O)N1CC2(CC2)C[C@H]1C(=O)N[C@@H](C[C@@H]1CCNC1=O)C(=O)COC(F)(F)F` [Compound 354, (S)-5-(2-hydroxy-2-methylpropanoyl)-N-((S)-3-oxo-1-((S)-2-oxopyrrolidin-3-yl)-4-(trifluoromethoxy)butan-2-yl)-5-azaspiro[2.4]-heptane-6-carboxamide] was tested. Which EC50 did it give?
A: The EC50 was 0.05 to 0.2 µM.

Q: How did the EC50 turn out when `O=C(Nc1ccccc1Cc1ccccc1)C(=O)N[C@@H](CC1CCCCC1)C(=O)N[C@@H](C[C@@H]1CCNC1=O)C(=O)COc1c(F)c(F)cc(F)c1F` [Compound 111, N1-(2-benzylphenyl)-N2-((S)-3-cyclohexyl-1-oxo-1-(((S)-3-oxo-1-((S)-2-oxopyrrolidin-3-yl)-4-(2,3,5,6-tetrafluorophenoxy)butan-2-yl)amino)propan-2-yl)oxalamide] was run?
A: The EC50 was 0.05 to 0.2 µM.

Q: With `CC(C)(C)[C@H](O)C(=O)N1CC2(CC2)C[C@H]1C(=O)N[C@@H](C[C@@H]1CCNC1=O)C(=O)COC(F)(F)F` [Compound 344, (S)-5-((S)-2-hydroxy-3,3-dimethylbutanoyl)-N-((S)-3-oxo-1-((S)-2-oxopyrrolidin-3-yl)-4-(trifluoromethoxy)butan-2-yl)-5-azaspiro[2.4]heptane-6-carboxamide] as the compound, how does the EC50 read?
A: The EC50 was < 0.05 µM.

Q: Which EC50 does the source give for `COc1cccc(NC(=O)C(=O)N[C@@H](CC(C)C)C(=O)N[C@@H](C[C@@H]2CCNC2=O)C(=O)COC(F)(F)F)c1` [Compound 188, N1-(3-methoxyphenyl)-N2-((S)-4-methyl-1-oxo-1-(((S)-3-oxo-1-((S)-2-oxopyrrolidin-3-yl)-4-(trifluoromethoxy)butan-2-yl)amino)pentan-2-yl)oxalamide] here?
A: The EC50 was < 0.05 µM.

Q: `O=C(N[C@@H](CC1CCCCC1)C(=O)N[C@@H](C[C@@H]1CCNC1=O)C(=O)COc1c(F)c(F)cc(F)c1F)c1cc(-c2ccccc2F)on1` [Compound 110, N-((S)-3-cyclohexyl-1-oxo-1-(((S)-3-oxo-l-((S)-2-oxopyrrolidin-3-yl)-4-(2,3,5,6-tetrafluorophenoxy)butan-2-yl)amino)propan-2-yl)-5-(2-fluorophenyl)isoxazole-3-carboxamide] was tested. Which EC50 did it give?
A: Its EC50 is 0.2 to 0.5 µM.

Q: With `CC(C)C[C@H](NC(=O)C(=O)NC1(CO)CC1)C(=O)N[C@@H](C[C@@H]1CCNC1=O)C(=O)COC(F)(F)F` [Compound 231, Nl-(l-(hydroxymethyl)-cyclopropyl)-N2-((S)-4-methyl-1-oxo-1-(((S)-3-oxo-1-((S)-2-oxopyrrolidin-3-yl)-4-(trifluoromethoxy)butan-2-yl)amino)pentan-2-yl)oxalamide] as the compound, how does the EC50 read?
A: Its EC50 is 0.5 to 1 µM.

Q: For `CC1(C)[C@@H]2[C@@H](C(=O)N[C@@H](C[C@@H]3CCNC3=O)C(=O)COC(F)(F)F)N(C(=O)C34CC(C(F)F)(CO3)C4)C[C@@H]21` [Compound 322, (1R,2S,5S)-3-(4-(difluoromethyl)-2-oxabicyclo[2.1.1]-hexane-1-carbonyl)-6,6-dimethyl-N-((S)-3-oxo-1-((S)-2-oxopyrrolidin-3-yl)-4-(trifluoromethoxy)butan-2-yl)-3-azabicyclo-[3.1.0]hexane-2-carboxamide], which EC50 is on record?
A: The EC50 was 0.05 to 0.2 µM.

Q: `O=C(N[C@@H](CC1CC1)C(=O)N[C@@H](C[C@@H]1CCNC1=O)C(=O)COC(F)(F)F)c1cc(-c2ccccc2F)on1` [Compound 160, N-((S)-3-cyclopropyl-1-oxo-1-(((S)-3-oxo-1-((S)-2-oxopyrrolidin-3-yl)-4-(trifluoromethoxy)butan-2-yl)amino)propan-2-yl)-5-(2-fluorophenyl)isoxazole-3-carboxamide] was tested. Which EC50 did it give?
A: The EC50 was < 0.05 µM.

Q: With `CC(C)C[C@H](NC(=O)c1ccc2ccccc2n1)C(=O)N[C@@H](C[C@@H]1CCNC1=O)C(=O)COc1c(F)c(F)cc(F)c1F` [Compound 20, N-((S)-4-methyl-1-oxo-1-(((S)-3-oxo-1-((S)-2-oxopyrrolidin-3-yl)-4-(2,3,5,6-tetrafluorophenoxy)butan-2-yl)amino)pentan-2-yl)quinoline-2-carboxamide] as the compound, how does the EC50 read?
A: Its EC50 is 0.2 to 0.5 µM.

Q: `CC(C)C[C@H](NC(=O)C(=O)NC1CCCC1)C(=O)N[C@@H](C[C@@H]1CCNC1=O)C(=O)COc1c(F)c(F)cc(F)c1F` [Compound 102, N1-cyclopentyl-N2-((S)-4-methyl-1-oxo-1-(((S)-3-oxo-1-((S)-2-oxopyrrolidin-3-yl)-4-(2,3,5,6-tetrafluorophenoxy)butan-2-yl)amino)pentan-2-yl)oxalamide] was tested. Which EC50 did it give?
A: Its EC50 is 0.05 to 0.2 µM.

Q: For `CC(C)C[C@H](NC(=O)C12CC(C)(CO1)C2)C(=O)N[C@@H](C[C@@H]1CCNC1=O)C(=O)COC(F)(F)F` [Compound 313, 4-methyl-N-((S)-4-methyl-1-oxo-1-(((S)-3-oxo-1-((S)-2-oxopyrrolidin-3-yl)-4-(trifluoromethoxy)butan-2-yl)amino)pentan-2-yl)-2-oxabicyclo-[2.1.1]hexane-1-carboxamide], which EC50 is on record?
A: The EC50 was 0.05 to 0.2 µM.

Q: How did the EC50 turn out when `CC(C)(C)[C@H](NC(=O)C(=O)Nc1ccccc1F)C(=O)N[C@@H](C[C@@H]1CCNC1=O)C(=O)COc1c(F)c(F)cc(F)c1F` [Compound 119, N1-((S)-3,3-dimethyl-1-oxo-1-(((S)-3-oxo-1-((S)-2-oxopyrrolidin-3-yl)-4-(2,3,5,6-tetrafluorophenoxy)butan-2-yl)amino)butan-2-yl)-N2-(2-fluorophenyl)oxalamide] was run?
A: Its EC50 is 0.2 to 0.5 µM.

Q: `CC(C)C[C@H](NC(=O)[C@H](O)C(F)(F)F)C(=O)N[C@@H](C[C@@H]1CCNC1=O)C(=O)COC(F)(F)F` [Compound 384, (S)-4-methyl-N-((S)-3-oxo-1-((S)-2-oxopyrrolidin-3-yl)-4-(trifluoromethoxy)butan-2-yl)-2-((S)-3,3,3-trifluoro-2-hydroxypropanamido)-pentanamide] was tested. Which EC50 did it give?
A: The EC50 was 0.05 to 0.2 µM.

Same assay, conditions: Severe acute respiratory syndrome coronavirus 2, HeLa-ACE2, 24 h, HeLa-ACE2 cells, SARS-CoV-2 infection, 24 h; given as a bound, not a class symbol; read-out: EC50, uM (Hela)

Q: For `CC(C)(C)[C@H](NC(=O)NC1CC1)C(=O)N1C[C@H]2[C@@H]([C@H]1C(=O)N[C@@H](C[C@@H]1CCNC1=O)C(=O)COC(F)(F)F)C2(C)C` [Compound 634, (1R,2S,5S)-3-((S)-2-(3-cyclopropylureido)-3,3-dimethylbutanoyl)-6,6-dimethyl-N-((S)-3-oxo-1-((S)-2-oxopyrrolidin-3-yl)-4-(trifluoromethoxy)butan-2-yl)-3-azabicyclo[3.1.0]hexane-2-carboxamide], which EC50 is on record?
A: Its EC50 is > 1 µM.

Same assay, conditions: Severe acute respiratory syndrome coronavirus 2, HeLa-ACE2, 24 h, HeLa-ACE2 cells, SARS-CoV-2 infection, 24 h; given as bound; read-out: EC50, uM (Hela)

Q: For `CC(C)(C)NC(=O)C(=O)N1CC2(COC2)C[C@H]1C(=O)N[C@@H](C[C@@H]1CCNC1=O)C(=O)COC(F)(F)F` [Compound 515, (S)-6-(2-(tert-butylamino)-2-oxoacetyl)-N-((S)-3-oxo-1-((S)-2-oxopyrrolidin-3-yl)-4-(trifluoromethoxy)butan-2-yl)-2-oxa-6-azaspiro[3.4]octane-7-carboxamide], which EC50 is on record?
A: Its EC50 is > 1 µM.

Same assay, conditions: Severe acute respiratory syndrome coronavirus 2, HeLa-ACE2, 24 h, HeLa-ACE2 cells, SARS-CoV-2 infection, 24 h; read-out: EC50, uM (Hela)

Q: `CC(C)C(F)(F)C(=O)N1CC2(CC2)C[C@H]1C(=O)N[C@@H](C[C@@H]1CCNC1=O)C(=O)COC(F)(F)F` [Compound 714, (S)-5-(2,2-difluoro-3-methylbutanoyl)-N-((S)-3-oxo-1-((S)-2-oxopyrrolidin-3-yl)-4-(trifluoromethoxy)butan-2-yl)-5-azaspiro[2.4]heptane-6-carboxamide] was tested. Which EC50 did it give?
A: Its EC50 is < 0.05 µM.

Q: `CC(C)C[C@@H](O)C(=O)N1C[C@H]2CC[C@H](C2)[C@H]1C(=O)N[C@@H](C[C@@H]1CCNC1=O)C(=O)COC(F)(F)F` [Compound 638, (1R,2S,5S)-3-((R)-2-hydroxy-4-methylpentanoyl)-N-((S)-3-oxo-1-((S)-2-oxopyrrolidin-3-yl)-4-(trifluoromethoxy)butan-2-yl)-3-azabicyclo[3.2.1]octane-2-carboxamide] was tested. Which EC50 did it give?
A: The EC50 was 0.05 to 0.2 µM.

Q: `CC(C)C[C@H](NS(=O)(=O)c1ccc2c(ccn2C)c1)C(=O)N[C@@H](C[C@@H]1CCNC1=O)C(=O)COc1c(F)c(F)cc(F)c1F` [Compound 765, (S)-4-methyl-2-((l-methyl-1H-indole)-5-sulfonamido)-N-((S)-3-oxo-1-((S)-2-oxopyrrolidin-3-yl)-4-(2,3,5,6-tetrafluorophenoxy)butan-2-yl)pentanamide] was tested. Which EC50 did it give?
A: Its EC50 is < 0.05 µM.

Q: For `O=C1NCC[C@H]1C[C@H](NC(=O)[C@@H]1[C@H]2CCC[C@H]2CN1C(=O)[C@H](O)c1ccccc1)C(=O)COC(F)(F)F` [Compound 414, (1S,3aR,6aS)-2-((R)-2-hydroxy-2-phenylacetyl)-N-((S)-3-oxo-1-((S)-2-oxopyrrolidin-3-yl)-4-(trifluoromethoxy)butan-2-yl)octahydrocyclo-penta[c]pyrrole-1-carboxamide], which EC50 is on record?
A: Its EC50 is < 0.05 µM.

Q: `CC(F)(F)CCC(=O)N1CC2(CC2)C[C@H]1C(=O)N[C@@H](C[C@@H]1CCNC1=O)C(=O)COC(F)(F)F` [Compound 678, (S)-5-(4,4-difluoropentanoyl)-N-((S)-3-oxo-1-((S)-2-oxopyrrolidin-3-yl)-4-(trifluoromethoxy)butan-2-yl)-5-azaspiro[2.4]heptane-6-carboxamide] was tested. Which EC50 did it give?
A: Its EC50 is < 0.05 µM.

Q: With `O=C(Nc1ccccc1F)C(=O)N[C@@H](Cc1ccc(F)c(F)c1)C(=O)N[C@@H](C[C@@H]1CCNC1=O)C(=O)COC(F)(F)F` [Compound 589, N1-((S)-3-(3,4-difluorophenyl)-1-oxo-1-(((S)-3-oxo-1-((S)-2-oxopyrrolidin-3-yl)-4-(trifluoromethoxy)butan-2-yl)amino)propan-2-yl)-N2-(2-fluorophenyl)oxalamide] as the compound, how does the EC50 read?
A: The EC50 was 0.05 to 0.2 µM.

Q: How did the EC50 turn out when `CC(C)(C[C@H](NC(=O)C(=O)NC12CC(F)(C1)C2)C(=O)N[C@@H](C[C@@H]1CCNC1=O)C(=O)COC(F)(F)F)C(F)F` [Compound 564, N1-((S)-5,5-difluoro-4,4-dimethyl-1-oxo-1-(((S)-3-oxo-1-((S)-2-oxopyrrolidin-3-yl)-4-(trifluoromethoxy)butan-2-yl)amino)pentan-2-yl)-N2-(3-fluorobicyclo[1.1.1]-pentan-1-yl)oxalamide] was run?
A: Its EC50 is < 0.05 µM.

Q: `CC1(C)[C@@H]2[C@@H](C(=O)N[C@@H](C[C@@H]3CCNC3=O)C(=O)COC(F)(F)F)N(C(=O)C(=O)Nc3ccccc3F)C[C@@H]21` [Compound 489, (1R,2S,5S)-3-(2-((2-fluorophenyl)amino)-2-oxoacetyl)-6,6-dimethyl-N-((S)-3-oxo-1-((S)-2-oxopyrrolidin-3-yl)-4-(trifluoromethoxy)butan-2-yl)-3-azabicyclo[3.1.0]-hexane-2-carboxamide] was tested. Which EC50 did it give?
A: The EC50 was < 0.05 µM.

— patent publication US11708348B2, “Protease inhibitors for treatment of coronavirus infections” (The Scripps Research Institute, priority 2021, dated 2023)
